Reference: PubChem BioAssay (NCI)
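The concentration for 50% growth inhibition is given as GI50. Definition used: TGI = concentration required for complete inhibition of growth.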

What was measured:
Test in all cases: DTP human tumour cell line panel, 384-well format
PC-3 prostate = tested on: PC-3 prostate
HOP-62 NSCLC = tested on: HOP-62 NSCLC
T-47D breast = tested on: T-47D breast
TK-10 renal = tested on: TK-10 renal
HCT-116 colon = tested on: HCT-116 colon
NCI-H460 NSCLC = tested on: NCI-H460 NSCLC
OVCAR-4 ovarian = tested on: OVCAR-4 ovarian
MDA-MB-468 breast = tested on: MDA-MB-468 breast
NCI-H226 lung = tested on: NCI-H226 lung
COLO 205 colon = tested on: COLO 205 colon
HT29 colon = tested on: HT29 colon
HS 578T breast = tested on: HS 578T breast
OVCAR-3 ovarian = tested on: OVCAR-3 ovarian
MDA-MB-435 melanoma = tested on: MDA-MB-435 melanoma
HL-60(TB) leukemia = tested on: HL-60(TB) leukemia
OVCAR-8 ovarian = tested on: OVCAR-8 ovarian
MALME-3M melanoma = tested on: MALME-3M melanoma
HCT-15 colon = tested on: HCT-15 colon
MCF7 breast = tested on: MCF7 breast
SF-268 CNS = tested on: SF-268 CNS
SNB-19 CNS = tested on: SNB-19 CNS
KM12 colon = tested on: KM12 colon
SK-OV-3 ovarian = tested on: SK-OV-3 ovarian
RXF 393 renal = tested on: RXF 393 renal
NCI-H23 lung = tested on: NCI-H23 lung
SNB-75 CNS = tested on: SNB-75 CNS
NCI-H322M lung = tested on: NCI-H322M lung
OVCAR-5 ovarian = tested on: OVCAR-5 ovarian
K-562 leukemia = tested on: K-562 leukemia
NCI-H522 lung = tested on: NCI-H522 lung
SF-539 CNS = tested on: SF-539 CNS
SK-MEL-2 melanoma = tested on: SK-MEL-2 melanoma
CAKI-1 renal = tested on: CAKI-1 renal
SK-MEL-5 melanoma = tested on: SK-MEL-5 melanoma
SN12C renal = tested on: SN12C renal
SK-MEL-28 melanoma = tested on: SK-MEL-28 melanoma
DU-145 prostate = tested on: DU-145 prostate
IGROV1 ovarian = tested on: IGROV1 ovarian
UACC-62 melanoma = tested on: UACC-62 melanoma
UO-31 renal = tested on: UO-31 renal
HOP-92 NSCLC = tested on: HOP-92 NSCLC
MOLT-4 leukemia = tested on: MOLT-4 leukemia
MDA-MB-231 breast = tested on: MDA-MB-231 breast
A549 NSCLC = tested on: A549 NSCLC
SR leukemia = tested on: SR leukemia
M14 melanoma = tested on: M14 melanoma
ACHN renal = tested on: ACHN renal
UACC-257 melanoma = tested on: UACC-257 melanoma
A498 renal = tested on: A498 renal
BT-549 breast = tested on: BT-549 breast
EKVX NSCLC = tested on: EKVX NSCLC
SW-620 colon = tested on: SW-620 colon
786-0 renal = tested on: 786-0 renal
SF-295 CNS = tested on: SF-295 CNS
U251 glioblastoma = tested on: U251 glioblastoma

Q: What does the source list for `O=C(NOCCO)c1cc(CN2OCCCC2=O)c(F)c(F)c1Nc1ccc(I)cc1F`?
A: GI50 (PC-3 prostate): 34.4 µM; TGI (PC-3 prostate): > 100 µM; GI50 (HOP-62 NSCLC): 0.0251 µM; TGI (HOP-62 NSCLC): 64.6 µM; GI50 (T-47D breast): 21.5 µM; TGI (T-47D breast): 65.2 µM; GI50 (TK-10 renal): 0.198 µM; TGI (TK-10 renal): 44.7 µM; GI50 (HCT-116 colon): 0.018 µM; TGI (HCT-116 colon): 1.28 µM; GI50 (NCI-H460 NSCLC): 0.0236 µM; TGI (NCI-H460 NSCLC): 51.9 µM; GI50 (OVCAR-4 ovarian): 17.4 µM; TGI (OVCAR-4 ovarian): > 100 µM; GI50 (MDA-MB-468 breast): 2.56 µM; TGI (MDA-MB-468 breast): 13.8 µM; GI50 (NCI-H226 lung): 0.0421 µM; TGI (NCI-H226 lung): 7.38 µM; GI50 (COLO 205 colon): < 0.01 µM; TGI (COLO 205 colon): 0.027 µM; GI50 (HT29 colon): < 0.01 µM; TGI (HT29 colon): 20.8 µM; GI50 (HS 578T breast): 3.48 µM; TGI (HS 578T breast): 23.8 µM; GI50 (OVCAR-3 ovarian): 10.2 µM; TGI (OVCAR-3 ovarian): 39.6 µM; GI50 (MDA-MB-435 melanoma): < 0.01 µM; TGI (MDA-MB-435 melanoma): > 100 µM; GI50 (HL-60(TB) leukemia): < 0.01 µM; TGI (HL-60(TB) leukemia): 10.6 µM; GI50 (OVCAR-8 ovarian): 4.6 µM; TGI (OVCAR-8 ovarian): 25.5 µM; GI50 (MALME-3M melanoma): < 0.01 µM; TGI (MALME-3M melanoma): < 0.01 µM; GI50 (HCT-15 colon): 5.87 µM; TGI (HCT-15 colon): > 100 µM; GI50 (MCF7 breast): 5.12 µM; TGI (MCF7 breast): 35.6 µM; GI50 (SF-268 CNS): 24.8 µM; TGI (SF-268 CNS): > 100 µM; GI50 (SNB-19 CNS): 12.7 µM; TGI (SNB-19 CNS): 62.8 µM; GI50 (KM12 colon): 1.71 µM; TGI (KM12 colon): > 100 µM; GI50 (SK-OV-3 ovarian): 8.12 µM; TGI (SK-OV-3 ovarian): 55.4 µM; GI50 (RXF 393 renal): 0.498 µM; TGI (RXF 393 renal): 7.61 µM; GI50 (NCI-H23 lung): < 0.01 µM; TGI (NCI-H23 lung): 0.371 µM; GI50 (SNB-75 CNS): 2.85 µM; TGI (SNB-75 CNS): 17.7 µM; GI50 (NCI-H322M lung): 0.0737 µM; TGI (NCI-H322M lung): 4.19 µM; GI50 (OVCAR-5 ovarian): < 0.01 µM; TGI (OVCAR-5 ovarian): > 100 µM; GI50 (K-562 leukemia): 0.0276 µM; TGI (K-562 leukemia): 17 µM; GI50 (NCI-H522 lung): 5.97 µM; TGI (NCI-H522 lung): 30.2 µM; GI50 (SF-539 CNS): 0.554 µM; TGI (SF-539 CNS): 4.03 µM; GI50 (SK-MEL-2 melanoma): < 0.01 µM; TGI (SK-MEL-2 melanoma): 0.019 µM; GI50 (CAKI-1 renal): 0.059 µM; TGI (CAKI-1 renal): 24.9 µM; GI50 (SK-MEL-5 melanoma): < 0.01 µM; TGI (SK-MEL-5 melanoma): 17.5 µM; GI50 (SN12C renal): 1.28 µM; TGI (SN12C renal): > 100 µM; GI50 (SK-MEL-28 melanoma): < 0.01 µM; TGI (SK-MEL-28 melanoma): 0.0115 µM; GI50 (DU-145 prostate): 1.41 µM; TGI (DU-145 prostate): > 100 µM; GI50 (IGROV1 ovarian): 0.0179 µM; TGI (IGROV1 ovarian): 7.87 µM; GI50 (UACC-62 melanoma): < 0.01 µM; TGI (UACC-62 melanoma): 0.0869 µM; GI50 (UO-31 renal): 0.133 µM; TGI (UO-31 renal): 2.13 µM; GI50 (HOP-92 NSCLC): 0.179 µM; TGI (HOP-92 NSCLC): 1.72 µM; GI50 (MOLT-4 leukemia): 7.81 µM; TGI (MOLT-4 leukemia): 20.6 µM; GI50 (MDA-MB-231 breast): 0.0601 µM; TGI (MDA-MB-231 breast): > 100 µM; GI50 (A549 NSCLC): 0.0535 µM; TGI (A549 NSCLC): 10.9 µM; GI50 (SR leukemia): 2.12 µM; TGI (SR leukemia): 11.1 µM; GI50 (M14 melanoma): < 0.01 µM; TGI (M14 melanoma): 0.0119 µM; GI50 (ACHN renal): 3.48 µM; TGI (ACHN renal): > 100 µM; GI50 (UACC-257 melanoma): < 0.01 µM; TGI (UACC-257 melanoma): < 0.01 µM; GI50 (A498 renal): 0.236 µM; TGI (A498 renal): 23.4 µM; GI50 (BT-549 breast): 6.65 µM; TGI (BT-549 breast): 72.1 µM; GI50 (EKVX NSCLC): 0.201 µM; TGI (EKVX NSCLC): 14.9 µM; GI50 (SW-620 colon): < 0.01 µM; TGI (SW-620 colon): > 100 µM; GI50 ([…]-0 renal): 11.6 µM; TGI (786-0 renal): 42 µM; GI50 (SF-295 CNS): 11.2 µM; TGI (SF-295 CNS): 41.1 µM; GI50 (U251 glioblastoma): 0.209 µM; TGI (U251 glioblastoma): 17.8 µM
